Here are results for two molecules from US20070167631A1, “Novel herbicides” (priority 2003, published 2007).

In data set [1] the test system is Stellaria. Put plainly: Microscreen, post-emergence herbicidal action (Example B3). The class given is in vivo. The conditions noted are these: 250 g/ha, evaluated after 9 or 13 days, scale of eleven ratings (10=total damage, 0=no action). As to the method: (§1) Example B3 Microscreen, Post-Emergence Herbicidal Action Monocotyledonous and dicotyledonous test plants are sown in sterilised standard soil in seed trays each having 96 cells. After 8 to 9 days' cultivation under controlled conditions in a climatic chamber (cultivation at 17/23° C.; 13 hours' light; 50-60% humidity; after application at 19/24° C.), the plants are treated with an aqueous spray solution of 1000 mg/l of the active ingredient used ([…]; incl. 10% DMSO as solvent). The plants are grown on in the climatic chamber until the test is evaluated after 9 or 13 days. The test is evaluated in accordance with a scale of eleven ratings (10=total damage, 0=no action). Ratings of from 10 to 7 (especially from 10 to 8) indicate very good to good herbicidal action.

A further data set relates to Digitaria. The data set is described as above. The class given is in vivo. Particulars: 250 g/ha, evaluated after 9 or 13 days, scale of eleven ratings (10=total damage, 0=no action). As to the method: as §1
The subject of data set [2] is Galium. Briefly: Comparison test with prior art compound A, post-emergence herbicidal action (Example B4). The conditions noted are these: 125 g/ha, rating scale 10=total damage, 0=no action. The data set is classed as in vivo. The text has this: (§2) The post-emergence herbicidal action of compound no. 1.095 according to the invention was compared with compound A, which is described as compound no.

The next data set concerns Maize. The description is as above. The data set is classed as in vivo. The conditions noted are these: 125 g/ha, crop plant, rating scale 10=total damage, 0=no action.
Excerpt: as §2

In data set [3] the test system is Amaranthus. Described as above. The class given is in vivo. Particulars: 125 g/ha, rating scale 10=total damage, 0=no action.
Excerpt: as §2

For another data set, the system named is Wheat. Described as above. The class given is in vivo. Particulars: 125 g/ha, crop plant, rating scale 10=total damage, 0=no action.
Excerpt: as §2

Data set [4] relates to Stellaria. The description is as above. The class given is in vivo. Particulars: 125 g/ha, rating scale 10=total damage, 0=no action.
Excerpt: as §2

In data set [5] the test system is Ipomea. The data set is described as above. The class given is in vivo. The conditions noted are these: 125 g/ha, rating scale 10=total damage, 0=no action.
Excerpt: as §2

Data set [6] relates to Sida. The description is as above. The data set is classed as in vivo. The conditions noted are these: 125 g/ha, rating scale 10=total damage, 0=no action.
Excerpt: as §2

The subject of another data set is Sinapis. The description is as above. The data set is classed as in vivo. Particulars: 125 g/ha, rating scale 10=total damage, 0=no action.
Excerpt: as §2

Data set [7] relates to Amaranthus. Put plainly: Microscreen, post-emergence herbicidal action (Example B3). The conditions noted are these: 250 g/ha, evaluated after 9 or 13 days, scale of eleven ratings (10=total damage, 0=no action). The class given is in vivo. As to the method:
(§3) Example B3 Microscreen, Post-Emergence Herbicidal Action Monocotyledonous and dicotyledonous test plants are sown in sterilised standard soil in seed trays each having 96 cells. […] The plants are grown on in the climatic chamber until the test is evaluated after 9 or 13 days. The test is evaluated in accordance with a scale of eleven ratings (10=total damage, 0=no action). Ratings of from 10 to 7 (especially from 10 to 8) indicate very good to good herbicidal action.

The next data set deals with Nasturtium. The description is as above. The class given is in vivo. The conditions noted are these: 250 g/ha, evaluated after 9 or 13 days, scale of eleven ratings (10=total damage, 0=no action). As to the method:
as §3

The test system of a further data set is Solanum. The data set is described as above. The data set is classed as in vivo. Particulars: 250 g/ha, evaluated after 9 or 13 days, scale of eleven ratings (10=total damage, 0=no action). As to the method:
as §3

Data set [8] has as its system Galium. Put plainly: Comparison test with prior art compound B, post-emergence herbicidal action (Example B5). Particulars: 125 g/ha, rating scale 10=total damage, 0=no action. The data set is classed as in vivo. From the text: (§4) The post-emergence herbicidal action of compound no. 1.096 according to the invention was compared with compound B, which is described as compound no. 2.088 on page 83,

The subject of data set [9] is Stellaria. Described as above. The data set is classed as in vivo. Particulars: 125 g/ha, rating scale 10=total damage, 0=no action.
Excerpt: as §4

Data set [10] concerns Ipomea. Described as above. Particulars: 125 g/ha, rating scale 10=total damage, 0=no action. The data set is classed as in vivo.
Excerpt: as §4

A further data set deals with Bromus. Described as above. The data set is classed as in vivo. The conditions noted are these: 125 g/ha, rating scale 10=total damage, 0=no action.
Excerpt: as §4

For data set [11], the system named is Sida. Described as above. The data set is classed as in vivo. The conditions noted are these: 125 g/ha, rating scale 10=total damage, 0=no action.
Excerpt: as §4

The test system of another data set is Polygonum. The data set is described as above. The data set is classed as in vivo. The conditions noted are these: 125 g/ha, rating scale 10=total damage, 0=no action.
Excerpt: as §4

With `O=C1CCCC(O)=C1C(=O)c1ccc(C(F)(F)F)c(Cl)n1` [Compound 1.095], the “Stellaria, herbicidal action rating” value in the data set on Stellaria [1] was 7. In addition, the “Digitaria, herbicidal action rating” value with Digitaria stood at 3. For the same molecule, in the data set with Galium [2], the “Post-emergence herbicidal action: Galium” value was determined as 6. Also, the “Post-emergence herbicidal action: Maize” value in the data set on Maize amounted to 0. Besides, the “Post-emergence herbicidal action: Amaranthus” value with Amaranthus [3] was found to be 7. Further, in the data set with Wheat, the “Post-emergence herbicidal action: Wheat” value was found to be 0. In addition, the “Post-emergence herbicidal action: Stellaria” value in the data set on Stellaria [4] was 8. Besides, the “Post-emergence herbicidal action: Ipomea” value with Ipomea [5] was 7. In addition, the “Post-emergence herbicidal action: Sida” value with Sida [6] worked out at 5. The “Post-emergence herbicidal action: Sinapis” value with Sinapis was determined as 7. Besides, the “Amaranthus, herbicidal action rating” value in the data set on Amaranthus [7] is 7. In addition, in the data set on Nasturtium, the “Nasturtium, herbicidal action rating” value was 9. Besides, the “Solanum, herbicidal action rating” value in the data set on Solanum came out at 7.

In general, melting point refers to the temperature, or range, at which the solid turns liquid. `COc1nc(C(=O)C2=C(O)CCCC2=O)ccc1C(F)(F)F` [Compound 1.096] came in with a melting point of 80 to 81 °C. Moreover, the “Stellaria, herbicidal action rating” value in the data set on Stellaria [1] is 9. Also, in the data set with Digitaria, the “Digitaria, herbicidal action rating” value amounted to 8. Moreover, the “Amaranthus, herbicidal action rating” value in the data set with Amaranthus [7] is on record as 9. In addition, in the data set with Nasturtium, the “Nasturtium, herbicidal action rating” value turned out to be 10. In addition, the “Solanum, herbicidal action rating” value in the data set on Solanum came to 9. The “Post-emergence herbicidal action: Galium” value in the data set on Galium [8] is 8. The “Post-emergence herbicidal action: Stellaria” value in the data set with Stellaria [9] is given as 8. In the data set with Ipomea [10], the “Post-emergence herbicidal action: Ipomea” value worked out at 7. For the same molecule, the “Post-emergence herbicidal action: Bromus” value in the data set on Bromus amounted to 5. In the data set with Sida [11], the “Post-emergence herbicidal action: Sida” value was 7. In addition, the “Post-emergence herbicidal action: Polygonum” value with Polygonum is 8.
